Source: patent US9708359B2, “Pyrrolopyrimidine nucleosides and analogs thereof” (Chimerix, Inc., priority 2015, dated 2017)
In brackets after ≈: the same amount, converted by molar mass.

Tests used:
[1] = Cytotoxicity in lymphocyte assays, Akata cells; assay type: cell-based; conditions: human, parallel to EBV assay
Procedure: Every antiviral assay included a parallel cytotoxicity assay with the same cells used for each virus, the same cell number, the same drug concentrations, and the same incubation times to provide the same drug exposure. To ensure that the cytotoxicity of all compounds could be compared directly, a standard neutral red uptake cytotoxicity assay for all compounds in confluent HFF cells with a 7 d incubation period was performed.
Cytotoxicity in Lymphocyte Assays:
Cell viability in all assays with lymphocytes was assessed with a luminescent Cell Viability Assay. Briefly, assay plates were incubated at ambient temperature for 30 min then luminescent reagent was added to each well and the plates were mixed to lyse the cells. Plates were then incubated for at ambient temperature and the luminescence was quantified on a luminometer. Standard methods were used to calculate drug concentrations that inhibited the proliferation of cells by 50% (CC50).
Cell viability in all assays with lymphocytes was assessed with the CellTiter-Glo Luminescent Cell Viability Assay (Promega). […] Plates were then incubated for an additional 10 min at ambient temperature and the luminescence was quantified on a luminometer. […]

MEV = assay: microbe, parasite or virus in culture; assay type: cell-based; conditions: Measles morbillivirus, Vero 76, Vero76 cells
[2] = Solubility in water (rework study); assay type: physicochemical
Procedure: A brief rework study for compound 1, (containing 1.6% benzoic acid per AUC, HPLC) was executed in 10 vol of water (1 g in 10 mL):
All three experiments gave compound 1 with less than 0.1% benzoic acid (UAC, HPLC). The slurries were fluid, were easily stirred and filtration was fast. […] Without wishing to be bound by theory, a loss of NMT than 1% is expected (solubility 1 mg/mL). HPLC data for compound 1 were obtained with a method suitable for polar compounds using a Zorbax Eclipse Plus C18 column (water/ACN/TFA, 97.5/2.5/0.05). This is the same column used for steps 1 and 2.

BKV = assay: qPCR assay for BKV; assay type: cell-based, BK virus; conditions: Betapolyomavirus hominis, HFF cells
Procedure: qPCR Assays for BKV and JCV:
Primary assays for BK virus were performed in 96-well plates containing monolayers of HFF cells. Compound dilutions were prepared in plates containing cells which were subsequently infected at with the Gardner strain of BK virus. After a 7 d incubation, total DNA was prepared with a purification kit and genome copy number was quantified by real time PCR. Compounds that were positive in this assay were confirmed in a similar assay in 96-well plates with the compounds added 1 h […] to identify compounds that inhibit early stages of replication including adsorption and penetration. Genome copy number was determined by methods described above.
Primary assays for BK virus were performed in 96-well plates containing monolayers of HFF cells. Compound dilutions were prepared in plates containing cells which were subsequently infected at with the Gardner strain of BK virus. After a 7 d incubation, total DNA was prepared with a Wizard SV 96 well purification kit and genome copy number was quantified by real time PCR using the primers 5′-[…]-3′ (SEQ ID No. 8) , 5′-[…]-3′ (SEQ ID No. 9) and probe 5-6-FAM […]-3′ (SEQ ID No. 10) . Plasmid pMP526 served as the DNA standard for quantitation purposes. […] Genome copy number was determined by methods described above.

HCMV = assay: Plaque-reduction assay for HCMV; assay type: cell-based, human cytomegalovirus; conditions: Human betaherpesvirus 5, HFF cells
Procedure: Plaque-Reduction Assays for HSV-1, HSV-2, VZV and HCMV:
Monolayers of cells were prepared in six-well plates and incubated at to allow the cells to reach confluency. Media was then aspirated from the wells and of virus was added to each of three wells to yield 20-30 plaques in each well. The virus was allowed to adsorb to the cells for 1 h and the plates were rocked gently every 15 min to redistribute the media. Compounds were diluted in maintenance cell culture media consisting of MEM with Earl's salts supplemented with 2% FBS, L-glutamine, penicillin, and gentamycin. Solutions were added to duplicate wells and the plates were incubated for various times, depending on the virus used. The plaque-reduction assay with HSV-1 strain F was performed in a similar manner but with Vero cells infected one day after plating. For HSV-1 and -2, the monolayers were stained with 1% crystal violet in 20% methanol and the unbound dye removed by washing with dH2O. For assays with HCMV and VZV, the cell monolayer was stained with 1% Neutral Red solution for 4 h then the stain was aspirated and the cells were washed with PBS. For all assays, plaques were enumerated using a stereomicroscope and the concentration of compound that reduced plaque formation by 50% (EC50) was interpolated from the experimental data. […]

HHV-8 = assay: cells; assay type: cell-based, human herpes virus 8; conditions: Homo sapiens, BCBL1; HHV-8, BCBL-1 cells
WNV = assay: microbe, parasite or virus in culture; assay type: cell-based; conditions: West Nile virus, Vero 76, Vero76 cells
AdV = assay: microbe, parasite or virus in culture; assay type: cell-based; conditions: unidentified adenovirus, A549 cells
VACV = assay: microbe, parasite or virus in culture; assay type: cell-based; conditions: Orthopoxvirus vaccinia, HFF

## Cc1nc(N)c2c(C(N)=O)cn([C@@H]3O[C@H](CO)[C@@H](O)[C@H]3O)c2n1 [Compound 1, 4-amino-7-((2R,3R,4S,5R)-3,4-dihydroxy-5-(hydroxymethyl)tetrahydrofuran-2-yl)-2-methyl-7H-pyrrolo[2,3-d]pyrimidine-5-carboxamide]
[1]
  CC50: > 60 µM
MEV
  EC50: > 100 µM
[2]
  solubility: 1000 µg/mL (≈ 3.09 mM)
BKV
  EC50: > 60 µM
HCMV
  EC50: > 60 µM
HHV-8
  EC50: > 12 µM
WNV
  EC50: > 100 µM
AdV
  EC50: > 100 µM
VACV
  EC50: 56.2 µM
